Reference: the supplement of paper PMC12420376

Tests used:
[1] = test system: OVCAR8; assay: drug sensitivity score (DSS2) on cancer cell count; higher = more sensitive; extreme values may be limits of the assay; settings: 72 h
How it was run: (§1)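 Ovarian cancer cells were cultured either alone or directly mixed 1:1 with lung or skin fibroblasts and plated onto 384-well plates acoustically pre-spotted with 528 approved and investigational compounds at 5 concentrations for 72 h of treatment. After fixation, cells were immunostained for CK8/18 with Hoechst and imaged at 10× across 4 fields to count cancer cells. Responses were fitted with 4-parameter logistic curves, and from these fits a drug sensitivity score was derived in Breeze, with screen quality assessed by Z'.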

[2] = test system: KURAMOCHI; assay: as above; settings: 72 h
How it was run: as §1

[3] = co-cultured fibroblast: BJHTERT
[4] = co-cultured fibroblast: none (monoculture)

Row | SMILES | drug sensitivity score [1, 3] [DSS] | drug sensitivity score ([1]; co-cultured fibroblast: WI38) [DSS] | drug sensitivity score [1, 4] [DSS] | drug sensitivity score [2, 3] [DSS] | drug sensitivity score ([2]; co-cultured fibroblast: WI38) [DSS] | drug sensitivity score [2, 4] [DSS]
1 | O=c1[nH]c(C2CCCN2)nc2c1oc1ccc(Cl)cc12 (stereo unspecified) | 4.4 | 1.8 | 2.8 | 2.2 | 5.4 | 4.1
2 | C[C@@H]1CN(C(=O)c2ccc(NC(=O)c3cc(O[C@H](C)c4c(Cl)ccc(F)c4Cl)c(N)nn3)cc2)C[C@H](C)N1 [Ensartinib] | 0 | 0.1 | 0 | 1 | 1 | 0
3 | CN(Cc1cnc2nc(N)nc(N)c2n1)c1ccc(C(=O)N[C@@H](CCC(=O)O)C(=O)O)cc1 [Methotrexate] | 12.3 | 12.4 | 27.7 | 5.9 | 0 | 19.7
4 | CCCCC(=O)OCC(=O)[C@]1(O)Cc2c(O)c3c(c(O)c2[C@@H](O[C@H]2C[C@H](NC(=O)C(F)(F)F)[C@H](O)[C@H](C)O2)C1)C(=O)c1c(OC)cccc1C3=O [Valrubicin] | 17.6 | 15.3 | 18.4 | 19.7 | 17.1 | 24.1
5 | N[C@@H]1CCCN(c2c(/C=C3\SC(=O)NC3=O)cccc2-c2ccccc2)C1 [AZD1208] | 0 | 0 | 1.8 | 0 | 1.7 | 1.3
6 | CN1CCN(c2cc(C(=O)Nc3ccc4c(c3)-c3c(c(C(N)=O)nn3-c3ccc(F)cc3)CC4)c(Cl)cn2)CC1 [PHA 408] | 0.5 | 8.6 | 4.8 | 5.8 | 1.9 | 1.6
7 | CN(C)C(=N)NC(=N)N [Metformin] | 0 | 0 | 0 | 0 | 0 | 0
8 | O=C(NC[C@H](O)CN1CCc2ccccc2C1)c1cc(NC2COC2)ncn1 | 0 | 0 | 0 | 0.1 | 0 | 0
9 | Nc1cccc2c1CN(C1CCC(=O)NC1=O)C2=O (stereo unspecified) [Lenalidomide] | 0 | 0 | 1.8 | 0.1 | 2.6 | 10.7
10 | NS(=O)(=O)OC[C@@H]1C[C@@H](n2ccc3c(N[C@H]4CCc5ccccc54)ncnc32)C[C@@H]1O [Pevonedistat] | 20.9 | 12.5 | 26.4 | 14 | 19.1 | 18.2
11 | CCn1c(C(=O)N(C2CC2)C2CC2)cc2c3c(ncn3C)c(Nc3cc(C)n(C)n3)nc21 | 0 | 1.1 | 1.3 | 3 | 1.5 | 0
12 | CS(=O)(=O)N1CCN(Cc2cc3nc(-c4cccc5[nH]ncc45)nc(N4CCOCC4)c3s2)CC1 [Pictilisib] | 6.7 | 5.4 | 7.9 | 15 | 12.1 | 18.2
13 | O=C(O)c1ccc(O)c2ncccc12 [IOX-1] | 3.4 | 0.7 | 4.8 | 3.6 | 5.9 | 5.5
14 | CO[C@H]1C[C@@H]2CC[C@@H](C)[C@@](O)(O2)C(=O)C(=O)N2CCCC[C@H]2C(=O)O[C@H]([C@H](C)C[C@@H]2CC[C@@H](OP(C)(C)=O)[C@H](OC)C2)CC(=O)[C@H](C)/C=C(\C)[C@@H](O)[C@@H](OC)C(=O)[C@H](C)C[C@H](C)/C=C/C=C/C=C/1C [Ridaforolimus] | 7.1 | 0 | 9.8 | 11.6 | 13.4 | 8.1
15 | O=C(O)CC[C@H]1CC[C@@](c2cc(F)ccc2F)(S(=O)(=O)c2ccc(Cl)cc2)CC1 [MK-0752] | 3.7 | 0 | 0 | 0 | 0 | 0
16 | CCn1c(-c2nonc2N)nc2cnc(Oc3cccc(NC(=O)c4ccc(OCCN5CCOCC5)cc4)c3)cc21 | 10.9 | 31.2 | 18.4 | 4.2 | 5.2 | 4.2
17 | Cc1ccc(-c2cc(C(F)(F)F)nn2-c2ccc(S(N)(=O)=O)cc2)cc1 [Celecoxib] | 0.1 | 0 | 0.1 | 0 | 0 | 0.5
18 | Cc1ccc(Nc2nccc(N(C)c3ccc4c(C)n(C)nc4c3)n2)cc1S(N)(=O)=O [Pazopanib] | 0 | 3.5 | 0 | 2 | 2 | 5.9
19 | C[C@@H](Oc1ccc2[nH]nc(/C=C/c3cnn(CCO)c3)c2c1)c1c(Cl)cncc1Cl | 8.2 | 9.2 | 8 | 5.7 | 2.2 | 6.7
20 | Cc1cc(-c2nc(-c3ccc(OC(F)(F)F)cc3)no2)nn1Cc1ccnc(N2CCN(C3CC3)CC2)c1 [BAY 87-2243] | 31.1 | 0 | 4.8 | 7.6 | 0 | 4.3
21 | N#Cc1ccc2[nH]c(O)c(-c3ccc(CN4CCOCC4)cn3)c2c1 [AZD-1080] | 0.1 | 0 | 0 | 0 | 0 | 0
22 | Oc1ncnc2[nH]ncc12 [Allopurinol] | 0 | 0 | 0 | 0 | 0 | 0
23 | CC(C)C[C@H](NC(=O)[C@H](Cc1ccccc1)NC(=O)c1cnccn1)B(O)O [Bortezomib] | 17.3 | 27.3 | 26 | 11.5 | 25.6 | 15.7
24 | COc1cc(Nc2ncc(F)c(Nc3ccc4c(n3)N(COP(=O)(O)O)C(=O)C(C)(C)O4)n2)cc(OC)c1OC [Fostamatinib] | 0 | 0 | 0 | 0 | 2 | 0.3
25 | COc1cc(N2CCC(N3CCN(C)CC3)CC2)ccc1Nc1ncc(Cl)c(Nc2ccccc2P(C)(C)=O)n1 [Brigatinib] | 4.3 | 7.9 | 2.2 | 0.1 | 0 | 0
26 | O=c1[nH]c(=O)n([C@H]2C[C@H](O)[C@@H](CO)O2)cc1F [Floxuridine] | 18.7 | 17.9 | 26.7 | 19.9 | 19 | 20.7
